Test results: paper PMC9132415, “Identification of 1H-pyrazolo[3,4-b]pyridine derivatives as novel and potent TBK1 inhibitors: design, synthesis, biological evaluation, and molecular docking study” (Journal of Enzyme Inhibition and Medicinal Chemistry, 2022)

Tests used:
Panc0504 cells = test: Antiproliferative activity, SRB staining; format: cell-based; settings: Panc 05.04, pancreatic cell line, 72 h
Method: (§1) A172, U87MG, A375, A2058, and Panc0504 cell lines were obtained from ATCC and cultured in indicated medium according to ATCC’s instructions. Cells were seeded in 96 well-plates at a destiny of around 2000 cells per well one day prior to administrated to increasing doses of indicated compounds. After 72 h of treatment, cells were washed with PBS and were fixed by 10% trichloroacetic acid before stained by sulphorhodamine B (SRB) solution. Unstained SRB were washed away by 1% acetic acid to reduce background signals. A Tris-based solution (10 mM) were used to dissolve stained SRB and the absorbance at 540 nm was measured with SpectraMax Paradigm (Molecular Devices). Inhibition rate was calculated by the relative absorbance value of test compound wells with the average of control wells […].

A375 cells = test: Antiproliferative activity, SRB staining; format: cell-based; settings: Homo sapiens, A-375, melanoma cell line, 72 h
Method: as §1

A172 cells = test: Antiproliferative activity, SRB staining; format: cell-based; settings: Homo sapiens, A 172, glioma cell line, 72 h
Method: as §1

U87MG cells = test: Antiproliferative activity, SRB staining; format: cell-based; settings: Homo sapiens, U-87 MG, glioma cell line, 72 h
Method: as §1

A2058 cells = test: Antiproliferative activity, SRB staining; format: cell-based; settings: Homo sapiens, melanoma cell line, 72 h
Method: as §1

[1] = system: ifnb and cxcl10 gene expression in RAW264.7 cells; test: mRNA detection of TBK1 downstream genes (RT-PCR), LPS-stimulated RAW264.7 cells; format: cell-based; settings: LPS-stimulated murine RAW264.7 cells
PI3K(p110b/p85a) = PI3K(p110b/p85a) (Homo sapiens, UniProt P42338); test: Kinase selectivity profile (SelectScreen); format: biochemical; settings: remaining kinase activity at 1.0 μM
Method: (§2) Compound 15y was evaluated for their inhibitory activities against 31 kinases at a single concentration (1 µM). Two different assay platforms were available for profiling—activity and binding. The Z′-LYTE and Adapta kinase activity assays were used most extensively for profiling and a smaller subset of kinases might be profiled using the LanthaScreen Eu Kinase Binding Assays.

SAPK2a = SAPK2a (Homo sapiens, UniProt Q16539); test: Kinase selectivity profile (SelectScreen); format: biochemical; settings: remaining kinase activity at 1.0 μM
Method: as §2

mTOR = mTOR (Homo sapiens, UniProt P42345); test: Kinase selectivity profile (SelectScreen); format: biochemical; settings: remaining kinase activity at 1.0 μM
Method: as §2

PKA = PKA (Homo sapiens, UniProt P17612); test: Kinase selectivity profile (SelectScreen); format: biochemical; settings: remaining kinase activity at 1.0 μM
Method: as §2

eEF-2K = eEF-2K (Homo sapiens, UniProt O00418); test: Kinase selectivity profile (SelectScreen); format: biochemical; settings: remaining kinase activity at 1.0 μM
Method: as §2

ASK1 = ASK1 (Homo sapiens, UniProt Q99683); test: Kinase selectivity profile (SelectScreen); format: biochemical; settings: remaining kinase activity at 1.0 μM
Method: as §2

PKG1α = PKG1α (Homo sapiens, UniProt Q13976); test: Kinase selectivity profile (SelectScreen); format: biochemical; settings: remaining kinase activity at 1.0 μM
Method: as §2

PRAK = PRAK (Homo sapiens, UniProt Q8IW41); test: Kinase selectivity profile (SelectScreen); format: biochemical; settings: remaining kinase activity at 1.0 μM
Method: as §2

MEK1 = MEK1 (Homo sapiens, UniProt Q02750); test: Kinase selectivity profile (SelectScreen); format: biochemical; settings: remaining kinase activity at 1.0 μM
Method: as §2

PDGFRβ = PDGFRβ (Homo sapiens, UniProt P09619); test: Kinase selectivity profile (SelectScreen); format: biochemical; settings: remaining kinase activity at 1.0 μM
Method: as §2

EphA5 = EphA5 (Homo sapiens, UniProt P54756); test: Kinase selectivity profile (SelectScreen); format: biochemical; settings: remaining kinase activity at 1.0 μM
Method: as §2

Rse = Rse (Homo sapiens, UniProt Q06418); test: Kinase selectivity profile (SelectScreen); format: biochemical; settings: remaining kinase activity at 1.0 μM
Method: as §2

EphB4 = EphB4 (Homo sapiens, UniProt P54760); test: Kinase selectivity profile (SelectScreen); format: biochemical; settings: remaining kinase activity at 1.0 μM
Method: as §2

PLK3 = PLK3 (Homo sapiens, UniProt Q9H4B4); test: Kinase selectivity profile (SelectScreen); format: biochemical; settings: remaining kinase activity at 1.0 μM
Chain of PLK3 (Q9H4B4 whole entry): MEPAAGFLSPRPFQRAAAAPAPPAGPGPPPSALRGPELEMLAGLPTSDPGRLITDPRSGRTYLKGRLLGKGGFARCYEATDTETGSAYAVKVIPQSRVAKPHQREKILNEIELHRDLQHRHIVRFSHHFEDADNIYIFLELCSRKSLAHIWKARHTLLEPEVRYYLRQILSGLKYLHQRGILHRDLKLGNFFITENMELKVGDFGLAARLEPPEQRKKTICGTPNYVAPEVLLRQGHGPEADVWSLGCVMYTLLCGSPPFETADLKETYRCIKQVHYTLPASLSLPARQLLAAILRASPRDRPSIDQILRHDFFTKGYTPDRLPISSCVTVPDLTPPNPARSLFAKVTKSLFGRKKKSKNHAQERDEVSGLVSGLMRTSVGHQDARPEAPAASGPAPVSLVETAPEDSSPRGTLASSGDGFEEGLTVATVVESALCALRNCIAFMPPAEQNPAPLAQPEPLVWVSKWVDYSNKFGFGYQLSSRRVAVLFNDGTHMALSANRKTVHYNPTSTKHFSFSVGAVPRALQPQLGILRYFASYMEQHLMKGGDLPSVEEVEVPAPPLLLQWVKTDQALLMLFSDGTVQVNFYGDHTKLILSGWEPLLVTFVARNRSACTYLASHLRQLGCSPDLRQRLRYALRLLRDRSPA
Method: as §2

PKCθ = PKCθ (Homo sapiens, UniProt Q04759); test: Kinase selectivity profile (SelectScreen); format: biochemical; settings: remaining kinase activity at 1.0 μM
Chain of PKCθ (Q04759 whole entry): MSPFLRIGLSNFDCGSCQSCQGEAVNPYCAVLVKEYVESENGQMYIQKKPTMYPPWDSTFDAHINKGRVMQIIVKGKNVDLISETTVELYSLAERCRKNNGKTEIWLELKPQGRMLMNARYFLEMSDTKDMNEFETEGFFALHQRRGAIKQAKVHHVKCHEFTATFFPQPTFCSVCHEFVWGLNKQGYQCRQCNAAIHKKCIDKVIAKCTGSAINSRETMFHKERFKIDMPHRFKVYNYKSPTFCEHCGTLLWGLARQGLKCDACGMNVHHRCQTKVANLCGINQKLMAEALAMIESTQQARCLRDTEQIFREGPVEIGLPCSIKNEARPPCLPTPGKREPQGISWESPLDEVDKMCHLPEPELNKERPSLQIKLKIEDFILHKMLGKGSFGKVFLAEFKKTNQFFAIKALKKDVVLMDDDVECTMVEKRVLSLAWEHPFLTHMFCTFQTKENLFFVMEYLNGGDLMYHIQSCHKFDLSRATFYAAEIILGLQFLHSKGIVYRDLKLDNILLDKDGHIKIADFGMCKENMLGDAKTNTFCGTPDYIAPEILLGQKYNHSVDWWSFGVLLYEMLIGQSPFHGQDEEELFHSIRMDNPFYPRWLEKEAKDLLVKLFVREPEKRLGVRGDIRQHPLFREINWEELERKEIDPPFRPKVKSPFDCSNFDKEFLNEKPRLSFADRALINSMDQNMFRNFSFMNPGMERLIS
Method: as §2

CK1γ1 = CK1γ1 (Homo sapiens, UniProt Q9HCP0); test: Kinase selectivity profile (SelectScreen); format: biochemical; settings: remaining kinase activity at 1.0 μM
Method: as §2

IKKβ = IKKβ (Homo sapiens, UniProt O14920); test: Kinase selectivity profile (SelectScreen); format: biochemical; settings: remaining kinase activity at 1.0 μM
Chain of IKKβ (O14920 whole entry): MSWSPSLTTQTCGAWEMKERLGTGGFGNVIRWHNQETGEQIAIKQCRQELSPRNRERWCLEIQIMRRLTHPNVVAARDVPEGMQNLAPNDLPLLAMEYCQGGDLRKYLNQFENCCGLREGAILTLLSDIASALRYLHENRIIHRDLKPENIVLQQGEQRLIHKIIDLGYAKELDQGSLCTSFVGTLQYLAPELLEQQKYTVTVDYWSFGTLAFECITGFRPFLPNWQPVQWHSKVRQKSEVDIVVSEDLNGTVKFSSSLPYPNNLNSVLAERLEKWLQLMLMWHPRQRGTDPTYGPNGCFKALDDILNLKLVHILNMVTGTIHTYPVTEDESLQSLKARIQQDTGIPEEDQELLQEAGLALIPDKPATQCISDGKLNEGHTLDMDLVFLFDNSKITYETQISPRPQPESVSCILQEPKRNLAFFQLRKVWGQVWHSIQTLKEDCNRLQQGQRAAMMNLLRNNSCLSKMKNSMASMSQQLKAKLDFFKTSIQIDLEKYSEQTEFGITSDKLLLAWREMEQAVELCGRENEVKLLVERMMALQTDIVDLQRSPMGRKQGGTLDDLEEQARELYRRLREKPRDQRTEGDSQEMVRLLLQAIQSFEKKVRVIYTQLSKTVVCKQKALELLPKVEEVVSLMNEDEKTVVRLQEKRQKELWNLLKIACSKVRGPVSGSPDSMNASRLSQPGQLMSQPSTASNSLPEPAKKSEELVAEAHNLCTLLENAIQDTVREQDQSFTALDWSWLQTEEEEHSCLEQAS
Method: as §2

PKCα = PKCα (Homo sapiens, UniProt P17252); test: Kinase selectivity profile (SelectScreen); format: biochemical; settings: remaining kinase activity at 1.0 μM
Method: as §2

PI3K(p120g) = PI3K(p120g) (Homo sapiens, UniProt P48736); test: Kinase selectivity profile (SelectScreen); format: biochemical; settings: remaining kinase activity at 1.0 μM
Method: as §2

PKBα = PKBα (Homo sapiens, UniProt P31749); test: Kinase selectivity profile (SelectScreen); format: biochemical; settings: remaining kinase activity at 1.0 μM
Method: as §2

MAPKAP-K2 = MAPKAP-K2 (Homo sapiens, UniProt P49137); test: Kinase selectivity profile (SelectScreen); format: biochemical; settings: remaining kinase activity at 1.0 μM
Method: as §2

PI3K(p110a/p85a) = PI3K(p110a/p85a) (Homo sapiens, UniProt P42336); test: Kinase selectivity profile (SelectScreen); format: biochemical; settings: remaining kinase activity at 1.0 μM
Method: as §2

IGF-1R = IGF-1R (Homo sapiens, UniProt P08069); test: Kinase selectivity profile (SelectScreen); format: biochemical; settings: remaining kinase activity at 1.0 μM
Chain of IGF-1R (P08069 31-1367): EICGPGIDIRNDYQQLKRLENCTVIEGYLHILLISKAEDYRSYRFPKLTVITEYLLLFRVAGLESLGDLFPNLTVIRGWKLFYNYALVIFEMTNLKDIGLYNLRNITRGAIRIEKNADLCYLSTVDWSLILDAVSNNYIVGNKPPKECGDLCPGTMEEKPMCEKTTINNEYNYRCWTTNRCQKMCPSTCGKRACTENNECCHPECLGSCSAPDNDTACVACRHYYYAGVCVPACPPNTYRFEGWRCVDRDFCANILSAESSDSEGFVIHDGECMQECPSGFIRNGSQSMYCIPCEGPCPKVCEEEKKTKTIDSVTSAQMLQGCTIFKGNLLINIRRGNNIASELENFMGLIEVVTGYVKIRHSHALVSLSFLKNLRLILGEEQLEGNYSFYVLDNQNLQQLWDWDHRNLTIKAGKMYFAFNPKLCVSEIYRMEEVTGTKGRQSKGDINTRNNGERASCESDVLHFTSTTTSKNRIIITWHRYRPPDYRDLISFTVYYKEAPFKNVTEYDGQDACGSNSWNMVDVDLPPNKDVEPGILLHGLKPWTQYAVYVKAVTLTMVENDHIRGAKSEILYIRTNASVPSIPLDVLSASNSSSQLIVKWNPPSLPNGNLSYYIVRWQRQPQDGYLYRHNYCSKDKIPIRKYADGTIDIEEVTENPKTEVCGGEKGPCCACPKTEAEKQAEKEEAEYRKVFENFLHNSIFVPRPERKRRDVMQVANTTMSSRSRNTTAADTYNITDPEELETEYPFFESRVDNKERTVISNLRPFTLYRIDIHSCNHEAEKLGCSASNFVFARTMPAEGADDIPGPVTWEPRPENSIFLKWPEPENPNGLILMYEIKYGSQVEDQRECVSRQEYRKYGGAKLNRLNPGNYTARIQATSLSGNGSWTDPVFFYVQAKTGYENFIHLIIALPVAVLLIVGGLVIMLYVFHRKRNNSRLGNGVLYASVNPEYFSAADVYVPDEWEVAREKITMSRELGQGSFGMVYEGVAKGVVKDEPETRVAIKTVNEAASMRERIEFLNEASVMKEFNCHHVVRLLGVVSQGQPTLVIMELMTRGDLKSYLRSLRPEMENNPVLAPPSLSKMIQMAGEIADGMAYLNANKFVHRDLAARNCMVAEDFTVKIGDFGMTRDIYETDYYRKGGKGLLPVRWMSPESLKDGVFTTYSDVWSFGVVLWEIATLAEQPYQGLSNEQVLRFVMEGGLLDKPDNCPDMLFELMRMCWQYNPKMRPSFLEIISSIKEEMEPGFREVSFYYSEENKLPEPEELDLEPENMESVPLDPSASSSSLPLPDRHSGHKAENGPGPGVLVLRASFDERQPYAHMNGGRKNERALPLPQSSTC
Method: as §2

EGFR = EGFR (Homo sapiens, UniProt P00533); test: Kinase selectivity profile (SelectScreen); format: biochemical; settings: remaining kinase activity at 1.0 μM
Method: as §2

SRPK1 = SRPK1 (Homo sapiens, UniProt Q96SB4); test: Kinase selectivity profile (SelectScreen); format: biochemical; settings: remaining kinase activity at 1.0 μM
Method: as §2

ALK = ALK (Homo sapiens, UniProt Q9UM73); test: Kinase selectivity profile (SelectScreen); format: biochemical; settings: remaining kinase activity at 1.0 μM
Chain of ALK (Q9UM73 19-1620): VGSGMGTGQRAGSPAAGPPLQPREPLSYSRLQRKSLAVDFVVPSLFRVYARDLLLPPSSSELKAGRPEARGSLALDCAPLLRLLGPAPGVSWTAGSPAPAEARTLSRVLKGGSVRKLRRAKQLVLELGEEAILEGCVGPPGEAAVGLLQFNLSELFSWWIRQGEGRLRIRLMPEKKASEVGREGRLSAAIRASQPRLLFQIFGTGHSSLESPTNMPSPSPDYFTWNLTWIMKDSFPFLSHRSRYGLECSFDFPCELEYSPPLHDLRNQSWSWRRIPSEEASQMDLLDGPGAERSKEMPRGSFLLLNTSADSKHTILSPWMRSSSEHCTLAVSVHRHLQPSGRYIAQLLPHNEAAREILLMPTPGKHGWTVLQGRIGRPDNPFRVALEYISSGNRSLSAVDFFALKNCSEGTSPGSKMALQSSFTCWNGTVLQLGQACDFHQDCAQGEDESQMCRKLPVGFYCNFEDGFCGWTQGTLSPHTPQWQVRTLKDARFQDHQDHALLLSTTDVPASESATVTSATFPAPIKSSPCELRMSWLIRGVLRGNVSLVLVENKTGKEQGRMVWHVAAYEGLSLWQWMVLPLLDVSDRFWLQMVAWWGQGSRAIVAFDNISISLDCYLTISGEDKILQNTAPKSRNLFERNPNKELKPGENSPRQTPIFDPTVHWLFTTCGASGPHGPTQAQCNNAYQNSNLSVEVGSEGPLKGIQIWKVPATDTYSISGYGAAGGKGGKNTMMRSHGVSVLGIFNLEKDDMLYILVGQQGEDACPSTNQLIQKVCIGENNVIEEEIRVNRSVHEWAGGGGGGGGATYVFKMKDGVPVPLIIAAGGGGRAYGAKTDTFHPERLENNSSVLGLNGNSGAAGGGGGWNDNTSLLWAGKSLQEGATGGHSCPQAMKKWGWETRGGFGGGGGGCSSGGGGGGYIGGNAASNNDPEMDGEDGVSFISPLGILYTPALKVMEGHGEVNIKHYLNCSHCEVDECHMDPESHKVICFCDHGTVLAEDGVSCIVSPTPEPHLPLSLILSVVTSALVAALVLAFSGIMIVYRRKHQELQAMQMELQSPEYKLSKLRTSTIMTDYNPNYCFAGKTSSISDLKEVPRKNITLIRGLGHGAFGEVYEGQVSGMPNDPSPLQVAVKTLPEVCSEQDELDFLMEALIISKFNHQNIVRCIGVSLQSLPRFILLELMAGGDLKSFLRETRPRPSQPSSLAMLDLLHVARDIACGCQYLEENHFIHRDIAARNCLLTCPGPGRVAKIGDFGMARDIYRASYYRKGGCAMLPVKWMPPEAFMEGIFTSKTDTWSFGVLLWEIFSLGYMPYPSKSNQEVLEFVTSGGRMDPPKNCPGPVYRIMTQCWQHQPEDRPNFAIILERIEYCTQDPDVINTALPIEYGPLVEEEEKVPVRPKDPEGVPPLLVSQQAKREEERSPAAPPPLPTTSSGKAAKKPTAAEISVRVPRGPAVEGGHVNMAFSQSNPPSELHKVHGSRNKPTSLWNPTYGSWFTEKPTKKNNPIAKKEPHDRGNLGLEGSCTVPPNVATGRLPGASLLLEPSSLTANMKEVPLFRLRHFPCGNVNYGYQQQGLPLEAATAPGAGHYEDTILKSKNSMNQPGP
Method: as §2

[2] = Cytotoxicity to normal cells; format: cell-based; settings: human, human umbilical vein endothelial cells (HUVECs)
Description: Figure S1. The cytotoxicity of compound 15y on Human Umbilical Vein Endothelial Cells
(HUVECs). Data are representative of 3 independent experiments and are shown in mean ± SD
value. Nolin fit 4-parameters model were used to fit the curve and to calculate IC50 values by
(1 picture or pasted object on this page, not shown here)

[3] = system: ifnb and cxcl10 gene expression in THP-1 cells; test: mRNA detection of TBK1 downstream genes (RT-PCR), poly(I:C)-stimulated THP-1 cells; format: cell-based, human; settings: compound at 1 µM

SMILES: Cc1nc2c(F)cc(-c3n[nH]c4ncc(-c5cccc(S(N)(=O)=O)c5)cc34)cc2n1C(C)C [Compound 15y]
- IC50 (Panc0504 cells): 3600 nM
- IC50 (A375 cells): 3100 nM
- IC50 (A172 cells): 1400 nM
- IC50 (U87MG cells): 2400 nM
- IC50 (A2058 cells): 900 nM
- inhibition of ifnb and cxcl10 expression [1]: profound activity
- %kinase activity @ 1.0 μM, PI3K(p110b/p85a) (PI3K(p110b/p85a)): 95%
- %kinase activity @ 1.0 μM, SAPK2a (SAPK2a): 60%
- %kinase activity @ 1.0 μM, mTOR (mTOR): 30%
- %kinase activity @ 1.0 μM, PKA (PKA): 84%
- %kinase activity @ 1.0 μM, eEF-2K (eEF-2K): 108%
- %kinase activity @ 1.0 μM, ASK1 (ASK1): 56%
- %kinase activity @ 1.0 μM, PKG1α (PKG1α): 54%
- %kinase activity @ 1.0 μM, PRAK (PRAK): 60%
- %kinase activity @ 1.0 μM, MEK1 (MEK1): 52%
- %kinase activity @ 1.0 μM, PDGFRβ (PDGFRβ): 21%
- %kinase activity @ 1.0 μM, EphA5 (EphA5): 51%
- %kinase activity @ 1.0 μM, Rse (Rse): 49%
- %kinase activity @ 1.0 μM, EphB4 (EphB4): 77%
- %kinase activity @ 1.0 μM, PLK3 (PLK3): 101%
- %kinase activity @ 1.0 μM, PKCθ (PKCθ): 33%
- %kinase activity @ 1.0 μM, CK1γ1 (CK1γ1): 33%
- %kinase activity @ 1.0 μM, IKKβ (IKKβ): 32%
- %kinase activity @ 1.0 μM, PKCα (PKCα): 27%
- %kinase activity @ 1.0 μM, PI3K(p120g) (PI3K(p120g)): 32%
- activity at 1 µM (PKBα): 111%
- %kinase activity @ 1.0 μM, MAPKAP-K2 (MAPKAP-K2): 95%
- %kinase activity @ 1.0 μM, PI3K(p110a/p85a) (PI3K(p110a/p85a)): 69%
- %kinase activity @ 1.0 μM, IGF-1R (IGF-1R): 88%
- %kinase activity @ 1.0 μM, EGFR (EGFR): 66%
- %kinase activity @ 1.0 μM, SRPK1 (SRPK1): 58%
- %kinase activity @ 1.0 μM, ALK (ALK): 28%
- IC50 [2]: 21200 nM
- inhibition of cxcl10 expression [3]: > 93%
- inhibition of ifnb expression [3]: > 93%
